Assay [1] has as its system LPS-induced TNFα secretion in monocyte-derived macrophages (MdM). As to the kind of experiment: MdM assay: LPS-triggered TNFα (ELISA). The format is cell-based, human. To be noted: Homo sapiens, Macrophage, LPS-triggered TNFα inhibition. The method in brief: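 TNFα ELISA read on supernatants harvested 20 h after LPS (final 200 ng/mL) stimulation. Cells were day-10 macrophages derived from human blood CD14+ monocytes, exposed to 3-fold compound dilutions for 1 h at 37 °C beforehand, with DMSO held at 0.2%.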
Background: ELISA stands for enzyme-linked immunosorbent assay.

Assay [2] concerns the target T1, SIK3 (Homo sapiens, UniProt Q9Y2K2).
T1 construct: purchased SignalChem S12-11G-100
The experiment in a line: biochemical. The method in brief:
(§1)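 AMARA peptide phosphorylation by SIK1–3 is quantified through ^33P uptake from a labeled/unlabeled ATP blend. Staurosporine at 10 μM final defines full inhibition, 1% DMSO the uninhibited signal. Quench uses phosphoric acid; counting follows filter capture.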

For assay [3], the target named is T2, SIK1 (Homo sapiens, UniProt P57059).
T2 construct: purchased Carna Biosciences 02-131
The experiment in a line: biochemical. As to conditions: 33P radioactive SIK kinase assay, AMARA peptide, 10 μM ATP; read-out: SIK1 IC50. The method in brief:
as §1

The target in assay [4] is T3, SIK2 (Homo sapiens, UniProt Q9H0K1).
T3 construct: purchased ThermoFisher Scientific PV4792
The experiment in a line: biochemical. As to conditions: 33P radioactive SIK kinase assay, AMARA peptide, 10 μM ATP. The gist of the method:
as §1

As usually defined, the EC50 is the concentration needed to bring the measured effect to its halfway point. Read a high EC50 as lower potency in that assay. By IC50 is commonly meant the midpoint of a concentration-inhibition curve.

T1 sequence (Q9Y2K2 whole entry): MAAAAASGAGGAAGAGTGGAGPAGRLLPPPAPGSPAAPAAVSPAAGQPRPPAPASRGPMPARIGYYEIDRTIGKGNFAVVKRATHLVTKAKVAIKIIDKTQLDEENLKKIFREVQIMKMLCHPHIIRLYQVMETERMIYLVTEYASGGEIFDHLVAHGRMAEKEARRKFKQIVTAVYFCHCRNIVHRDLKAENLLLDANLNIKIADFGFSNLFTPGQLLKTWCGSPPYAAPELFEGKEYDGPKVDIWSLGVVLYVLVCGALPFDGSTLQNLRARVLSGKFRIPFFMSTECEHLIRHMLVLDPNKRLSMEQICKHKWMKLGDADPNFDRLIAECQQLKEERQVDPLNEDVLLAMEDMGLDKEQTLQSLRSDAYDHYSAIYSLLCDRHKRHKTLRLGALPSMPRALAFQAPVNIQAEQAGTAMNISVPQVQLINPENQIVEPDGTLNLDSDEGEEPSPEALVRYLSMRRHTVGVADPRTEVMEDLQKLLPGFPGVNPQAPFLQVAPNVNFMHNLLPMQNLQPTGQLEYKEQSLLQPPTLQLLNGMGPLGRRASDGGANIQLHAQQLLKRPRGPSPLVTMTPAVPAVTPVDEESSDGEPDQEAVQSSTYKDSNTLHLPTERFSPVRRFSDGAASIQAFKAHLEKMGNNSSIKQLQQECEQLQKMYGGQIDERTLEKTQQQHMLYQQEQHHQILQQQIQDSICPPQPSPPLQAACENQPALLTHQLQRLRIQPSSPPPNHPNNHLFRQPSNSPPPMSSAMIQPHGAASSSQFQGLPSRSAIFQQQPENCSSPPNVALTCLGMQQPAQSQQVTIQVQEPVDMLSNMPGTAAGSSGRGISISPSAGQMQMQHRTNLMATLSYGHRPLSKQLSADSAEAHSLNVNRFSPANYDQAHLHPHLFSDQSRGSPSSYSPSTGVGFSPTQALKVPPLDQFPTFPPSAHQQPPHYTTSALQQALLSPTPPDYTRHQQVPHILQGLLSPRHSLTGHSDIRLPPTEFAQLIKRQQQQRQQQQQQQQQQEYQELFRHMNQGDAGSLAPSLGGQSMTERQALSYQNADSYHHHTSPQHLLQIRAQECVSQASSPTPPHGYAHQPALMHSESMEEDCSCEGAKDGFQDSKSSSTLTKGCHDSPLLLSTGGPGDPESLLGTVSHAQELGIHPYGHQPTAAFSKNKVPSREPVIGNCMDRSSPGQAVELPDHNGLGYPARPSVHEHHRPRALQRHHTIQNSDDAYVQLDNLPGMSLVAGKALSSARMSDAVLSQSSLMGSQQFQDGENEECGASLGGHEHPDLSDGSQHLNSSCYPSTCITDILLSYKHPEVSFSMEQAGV
T3 sequence (Q9H0K1 whole entry): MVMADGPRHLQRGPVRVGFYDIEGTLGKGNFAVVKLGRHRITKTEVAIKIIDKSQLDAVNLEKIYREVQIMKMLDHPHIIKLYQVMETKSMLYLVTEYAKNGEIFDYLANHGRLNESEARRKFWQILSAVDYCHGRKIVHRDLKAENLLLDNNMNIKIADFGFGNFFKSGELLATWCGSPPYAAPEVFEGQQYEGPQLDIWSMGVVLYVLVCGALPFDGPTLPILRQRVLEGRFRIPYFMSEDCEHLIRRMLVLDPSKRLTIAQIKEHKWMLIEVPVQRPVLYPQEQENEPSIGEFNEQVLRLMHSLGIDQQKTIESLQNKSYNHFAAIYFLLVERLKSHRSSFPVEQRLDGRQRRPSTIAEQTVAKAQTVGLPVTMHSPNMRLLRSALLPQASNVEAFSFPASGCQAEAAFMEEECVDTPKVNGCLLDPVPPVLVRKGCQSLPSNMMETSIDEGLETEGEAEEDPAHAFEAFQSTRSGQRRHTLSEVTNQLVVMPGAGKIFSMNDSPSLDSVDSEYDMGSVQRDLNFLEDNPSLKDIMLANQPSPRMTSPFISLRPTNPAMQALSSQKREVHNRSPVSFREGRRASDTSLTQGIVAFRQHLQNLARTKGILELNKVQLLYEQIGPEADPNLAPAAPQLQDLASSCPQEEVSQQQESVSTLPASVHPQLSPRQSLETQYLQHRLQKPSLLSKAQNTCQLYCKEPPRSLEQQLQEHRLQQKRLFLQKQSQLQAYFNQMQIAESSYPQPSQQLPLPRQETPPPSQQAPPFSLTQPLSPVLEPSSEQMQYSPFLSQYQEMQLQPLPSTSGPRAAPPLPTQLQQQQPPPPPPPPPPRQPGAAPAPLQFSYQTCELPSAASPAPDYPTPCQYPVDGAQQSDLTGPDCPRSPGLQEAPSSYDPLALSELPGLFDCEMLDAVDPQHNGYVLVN
T2 sequence (P57059 whole entry): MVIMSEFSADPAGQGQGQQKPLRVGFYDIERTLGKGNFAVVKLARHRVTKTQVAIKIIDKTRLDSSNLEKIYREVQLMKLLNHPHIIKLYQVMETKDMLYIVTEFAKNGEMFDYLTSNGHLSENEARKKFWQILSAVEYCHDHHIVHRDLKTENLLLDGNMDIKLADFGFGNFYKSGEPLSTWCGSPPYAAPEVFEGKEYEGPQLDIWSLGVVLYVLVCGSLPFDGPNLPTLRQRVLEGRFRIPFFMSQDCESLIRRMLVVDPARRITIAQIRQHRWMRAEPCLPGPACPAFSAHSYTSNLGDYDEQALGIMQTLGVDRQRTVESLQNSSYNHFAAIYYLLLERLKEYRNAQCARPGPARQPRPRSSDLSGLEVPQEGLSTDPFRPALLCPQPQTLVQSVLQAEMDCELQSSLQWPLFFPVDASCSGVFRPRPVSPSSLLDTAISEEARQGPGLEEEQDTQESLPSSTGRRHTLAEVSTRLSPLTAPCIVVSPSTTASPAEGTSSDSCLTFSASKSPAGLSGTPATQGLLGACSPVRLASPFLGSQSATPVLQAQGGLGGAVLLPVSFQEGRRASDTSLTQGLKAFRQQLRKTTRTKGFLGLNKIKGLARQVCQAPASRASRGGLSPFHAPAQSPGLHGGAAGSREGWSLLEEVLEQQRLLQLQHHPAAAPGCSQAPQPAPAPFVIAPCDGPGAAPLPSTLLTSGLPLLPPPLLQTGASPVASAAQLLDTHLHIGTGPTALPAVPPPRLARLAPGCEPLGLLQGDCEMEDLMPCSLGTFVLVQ

Regarding `COc1cc(-c2cnc3cc(-c4cnn(CC(=O)OCCF)c4)ccn23)cc(OC)c1C(=O)NCC(F)(F)F` [Cpd 235, 2-fluoroethyl 2-[4-[3-[3,5-dimethoxy-4-(2,2,2-trifluoroethyl-carbamoyl)phenyl]imidazo[1,2-a]pyridin-7-yl]pyrazol-1-yl]acetate], in assay [1], the EC50 fell in the range of 0.1 to 100 nM. The IC50 in assay [2], in assay [3] and in assay [4] was 0.01 to 10 nM throughout.

In the case of `CCNC(=O)c1c(OC)cc(-c2cnc3cc(-c4ccnnc4)ccn23)cc1OC(F)F` [compound 145, 2-(difluoromethoxy)-N-ethyl-6-methoxy-4-(7-pyridazin-4-ylimidazo[1,2-a]pyridin-3-yl)benzamide], in assay [1], the EC50 was 1000 to 5000 nM. Moreover, the IC50 in assay [2], in assay [3] and in assay [4] was 10 to 100 nM each time.

Consider `COc1cc(-n2cnc3cc(-c4cn(C)cn4)ccc32)cc(OC)c1C(=O)NCC(F)(F)F` [Cpd 137, 2,6-dimethoxy-4-[5-(1-methylimidazol-4-yl)benzimidazol-1-yl]-N-(2.2,2-trifluoroethyl)benzamide], for which the EC50 in assay [1] is 100 to 1000 nM. The IC50 was in the range of 10 to 100 nM in assay [2], 10 to 100 nM in assay [3] and 0.01 to 10 nM in assay [4].

Take `CCNC(=O)c1c(OC)cc(-c2cnc3cc(-c4cnn(C5CCN(C(=O)OC(C)(C)C)CC5)c4)ccn23)cc1OC(F)F` [compound 147, tert-butyl 4-[4-[3-[3-(difluoromethoxy)-4-(ethylcarbamoyl)-5-methoxy-phenyl]imidazo[1,2-a]pyridin-7-yl]pyrazol-1-yl]piperidine-1-carboxylate]: the EC50 in assay [1] lay in the range of 0.1 to 100 nM. The IC50 in assay [2], in assay [3] and in assay [4] was 0.01 to 10 nM in each case.

The compound `COc1cc(-n2cnc3cc(-c4noc(C)n4)ccc32)cc(OC)c1C(=O)NCC(F)(F)F` [Cpd 126, 2,6-dimethoxy-4-[5-(5-methyl-1,2,4-oxadiazol-3-yl)benzimidazol-1-yl]-N-(2,2,2-trifluoroethyl)benzamide] returned an EC50 in assay [1] of 1000 to 5000 nM. Moreover, the IC50 in assay [2], in assay [3] and in assay [4] was more than 500 nM each time.

`CCn1cc(-c2ccc3c(c2)ncn3-c2cc(OC)c(C(=O)NC3CCC3)c(OC)c2)cn1` [compound 26, N-cyclobutyl-4-[5-(1-ethylpyrazol-4-yl)benzimidazol-1-yl]-2,6-dimethoxy-benzamide] had an EC50 in assay [1] of 100 to 1000 nM. The IC50 in assay [2], in assay [3] and in assay [4] was 10 to 100 nM each time.

In turn, `COC(=O)Cn1cc(-c2ccn3c(-c4cc(OC)c(C(=O)NCC(F)(F)F)c(OC)c4)cnc3c2)cn1` [Cpd 236, methyl 2-[4-[3-[3,5-dimethoxy-4-(2,2,2-trifluoroethyl-carbamoyl)phenyl]imidazo[1,2-a]pyridin-7-yl]pyrazol-1-yl]acetate] gave an EC50 in assay [1] of 0.1 to 100 nM. Moreover, the IC50 in assay [2], in assay [3] and in assay [4] was 0.01 to 10 nM each time.

In assay [1], `COc1cc(-n2cnc3cc(-c4cn(C)nn4)ccc32)cc(OC)c1C(=O)NCC(F)(F)F` [compound 160, 2,6-dimethoxy-4-[5-(1-methyltriazol-4-yl)benzimidazol-1-yl]-N-(2,2,2-trifluoroethyl)benzamide] displayed an EC50 of 100 to 1000 nM. Besides, the IC50 in assay [2], in assay [3] and in assay [4] was 10 to 100 nM in each case.

Take `COc1cc(-n2cnc3cc(-c4cnc(C)[nH]4)ccc32)cc(OC)c1C(=O)NCC(F)(F)F` [compound 152, 2,6-dimethoxy-4-[5-(2-methyl-1H-imidazol-5-yl)benzimidazol-1-yl]-N(2,2,2-trifluoroethyl)benzamide]: the EC50 in assay [1] lay within 1000 to 5000 nM. The IC50 in assay [2], in assay [3] and in assay [4] was 10 to 100 nM throughout.

(Values after patent US12065443B2, “Compounds and pharmaceutical compositions thereof for the treatment of diseases” (priority 2017, dated 2024).)
